How the values were obtained:
L1 [1] = molecular target: T1, L1 (Homo sapiens, UniProt P32004); experiment: Neurite outgrowth over 3T3 cells transfected with L1; assay type: cell-based, rat; settings: 100 μg/ml
T1 construct: expressed in transfected cells; host or cells: 3T3 cells
Procedure: (§1) The ability of different modulating agents to inhibit neurite outgrowth was also evaluated. […] The peptides were tested at different concentrations. Rat neurons were grown for 20 hours on monolayers of either 3T3 cells, or 3T3 cells expressing N-cadherin. The cultures were then fixed, and the mean neurite length was determined by making measurements on at least 150 neurons for each treatment. The results are presented as the percentage inhibition of neurite outgrowth over 3T3 cells expressing N-cadherin.
(§2) To further evaluate the specificity of these peptide modulating agents, inhibition of neurite outgrowth was assessed, at 100 μg/ml, on monolayers of 3T3 cells transfected with various molecules responsible for neurite outgrowth. The results, shown in Table IV, illustrate a high level of specificity for N-cadherin mediated neurite outgrowth.

N-cadherin [2] = experiment: Neurite outgrowth of rat neurons on monolayers of 3T3 cells expressing N-cadherin; assay type: cell-based; settings: for Percent Inhibition of Neurite Outgrowth on 3T3 Cells Expressing N-cadherin: rat neurons, 20 hours
Procedure: (§3) Neurons were cultured on monolayers of 3T3 cells transfected with cDNA encoding N-cadherin essentially as described by Doherty and Walsh, Curr. Op. Neurobiol. 4:49-55, 1994; Williams et al., Neuron 13:583-594, 1994; Hall et al., Cell Adhesion and Commun. 3:441-450, 1996; Doherty and Walsh, Mol. Cell. Neurosci. 8:99-111, 1994; Safell et al., Neuron 18:231-242, 1997. Briefly, monolayers of control 3T3 fibroblasts and 3T3 fibroblasts that express N-cadherin were established by overnight culture of 80,000 cells in individual wells of an 8-chamber well tissue culture slide. 3000 cerebellar neurons isolated from post-natal day 3 mouse brains were cultured for 18 hours on the various monolayers in control media (SATO/2% FCS), or media supplemented with various concentrations of the test peptide to be evaluated. The cultures were then fixed and stained for GAP43 which specifically binds to the neurons and their neurites. The length of the longest neurite on each GAP43 positive neuron was then measured by computer assisted morphometry. For each data point, measurements were made from 100-160 neurons, and the given values show the mean +/− the standard error of the mean.
as §1
Similar experiments, illustrated in Table III, were performed to evaluate the effect of various cyclic peptide modulating agents derived from EC1 of human N-cadherin on neurite outgrowth.
as §2
Further experiments were performed as described above to assess the activity of peptide modulating agents derived from EC4 of human N-cadherin.

NCAM [3] = molecular target: T2, NCAM (Homo sapiens, UniProt P13591); experiment: Neurite outgrowth over 3T3 cells transfected with NCAM; assay type: cell-based, rat; settings: 100 μg/ml
T2 construct: expressed in transfected cells; host or cells: 3T3 cells
Procedure: as §1, §2

[4] = test system: human ovarian cancer cells (SKOV3); experiment: Disruption of tumor cell adhesion in SKOV3 monolayer cultures; assay type: cell-based; settings: 1 mg/mL, 24 hours; FIG. 8B
From the text: Within certain cell adhesion assays, the addition of a modulating agent to cells that express a cadherin results in disruption of cell adhesion. A “cadherin-expressing cell,” as used herein, may be any type of cell that expresses at least one cadherin on the cell surface at a detectable level, using standard techniques such as immunocytochemical protocols (e.g., Blaschuk and Farookhi, Dev. Biol. 136:564-567, 1989). Cadherin-expressing cells include endothelial, epithelial and/or cancer cells. For example, such cells may be plated under standard conditions that, in the absence of modulating agent, permit cell adhesion. In the presence of modulating agent (e.g., 500 μg/mL), disruption of cell adhesion may be determined visually within 24 hours, by observing retraction of the cells from one another.
Monolayer cultures of human ovarian cancer cells (SKOV3) were grown in the presence and absence of the peptide N-Ac-INPISGQ-NH2 (SEQ ID NO:22).

FGFR = experiment: Neurite outgrowth over 3T3 cells transfected with FGFR; assay type: cell-based, rat; settings: 100 μg/ml
Procedure: as §1, §2

NCAM [5] = molecular target: T2, NCAM; experiment: Neurite outgrowth of mouse cerebellar neurons on monolayers of 3T3 cells expressing NCAM; assay type: cell-based; settings: 250 μg/ml; FIG. 6
Procedure: as §3, with “For each data point, measurements were made from 100-160 neurons, and the given values show the mean +/− the standard error of the mean.” left out
(§4) The mean neurite length was further measured for neurons cultured on monolayers of 3T3 cells, 3T3 cells expressing N-cadherin, 3T3 cells expressing NCAM, and 3T3 cells expressing L1 in media containing the linear peptide H-WLKIDPVNGQI-OH (SEQ ID NO:13; designated N-CAD-CHD2) at a concentration of 250 μg/ml. […]

N-cadherin-Fc chimera = experiment: Binding of peptide to flow cell coated with N-cadherin-Fc chimera (human IgG1 control subtracted); settings: 250, 500 or 1000 μg/ml, FIG. 7
From the text: As noted above, native HAV-BM sequences, as well as analogues and mimetics thereof, bind to a classical cadherin, preferably within or near an HAV sequence, and modulate a cadherin-mediated response. The ability to bind to a cadherin sequence may generally be evaluated using any binding assay known to those of ordinary skill in the art. For example, a Pharmacia Biosensor machine may be used, as discussed in Jonsson et al., Biotechniques 11:520-27, 1991. A specific example of the technology that measures the interaction of peptides with molecules can be found in Williams et al., J. Biol. Chem. 272:8539-8545, 1997. Real-time BIA (Biomolecular Interaction Analysis) uses the optical phenomenon surface plasmon resonance to monitor biomolecular interactions. […] Binding to the chip is measured in real-time in arbitrary units of resonance (RU). […]
To determine binding, test analytes (e.g., cadherin peptides, such as HAV-containing peptides) may be placed in running buffer and passed simultaneously over test and control flow cells. […] Specific binding to the derivatized sensor chips may be determined automatically by the system by subtraction of […] flow cell responses. […]

L1 [6] = molecular target: T1, L1; experiment: Neurite outgrowth of mouse cerebellar neurons on monolayers of 3T3 cells expressing L1; assay type: cell-based; settings: 250 μg/ml; FIG. 6
Procedure: as §3, with “For each data point, measurements were made from 100-160 neurons, and the given values show the mean +/− the standard error of the mean.” left out
as §4

N-cadherin [7] = experiment: Neurite outgrowth of mouse cerebellar neurons on monolayers of 3T3 cells expressing N-cadherin; assay type: cell-based
From the text: Within a representative neurite outgrowth assay, neurons may be cultured on a monolayer of cells (e.g., 3T3 fibroblasts) that express N-cadherin. […] For example, neurons may be cultured on monolayers of 3T3 cells transfected with cDNA encoding N-cadherin essentially as described by Doherty and Walsh, Curr. Op. Neurobiol. 4:49-55, 1994; Williams et al., Neuron 13:583-594, 1994; Hall et al., Cell Adhesion and Commun. 3:441-450, 1996; Doherty and Walsh, Mol. Cell. Neurosci. 8:99-111, 1994; and Safell et al., Neuron 18:231-242, 1997. Briefly, monolayers of control 3T3 fibroblasts and 3T3 fibroblasts that express N-cadherin may be established by overnight culture of 80,000 cells in individual wells of an 8-chamber well tissue culture slide. […] The length of the longest neurite on each GAP43 positive neuron may be measured by computer assisted morphometry.
Neurons were cultured on monolayers of 3T3 cells transfected with cDNA encoding N-cadherin essentially as described by Doherty and Walsh, Curr. […] 3000 cerebellar neurons isolated from post-natal day 3 mouse brains were cultured for 18 hours on the various monolayers in control media (SATO/2% FCS), or media supplemented with various concentrations of the test peptide to be evaluated. […] The length of the longest neurite on each GAP43 positive neuron was then measured by computer assisted morphometry. […]

[8] = 3 μg/ml, cyclic peptides, Table III
[9] = 10 μg/ml, cyclic peptides, Table III
[10] = 33 μg/ml, cyclic peptides, Table III
[11] = 100 μg/ml, cyclic peptides, Table III
[12] = 11 μg/ml, EC4-derived peptides, Table V

T2 sequence (P13591 20-858, species assumed): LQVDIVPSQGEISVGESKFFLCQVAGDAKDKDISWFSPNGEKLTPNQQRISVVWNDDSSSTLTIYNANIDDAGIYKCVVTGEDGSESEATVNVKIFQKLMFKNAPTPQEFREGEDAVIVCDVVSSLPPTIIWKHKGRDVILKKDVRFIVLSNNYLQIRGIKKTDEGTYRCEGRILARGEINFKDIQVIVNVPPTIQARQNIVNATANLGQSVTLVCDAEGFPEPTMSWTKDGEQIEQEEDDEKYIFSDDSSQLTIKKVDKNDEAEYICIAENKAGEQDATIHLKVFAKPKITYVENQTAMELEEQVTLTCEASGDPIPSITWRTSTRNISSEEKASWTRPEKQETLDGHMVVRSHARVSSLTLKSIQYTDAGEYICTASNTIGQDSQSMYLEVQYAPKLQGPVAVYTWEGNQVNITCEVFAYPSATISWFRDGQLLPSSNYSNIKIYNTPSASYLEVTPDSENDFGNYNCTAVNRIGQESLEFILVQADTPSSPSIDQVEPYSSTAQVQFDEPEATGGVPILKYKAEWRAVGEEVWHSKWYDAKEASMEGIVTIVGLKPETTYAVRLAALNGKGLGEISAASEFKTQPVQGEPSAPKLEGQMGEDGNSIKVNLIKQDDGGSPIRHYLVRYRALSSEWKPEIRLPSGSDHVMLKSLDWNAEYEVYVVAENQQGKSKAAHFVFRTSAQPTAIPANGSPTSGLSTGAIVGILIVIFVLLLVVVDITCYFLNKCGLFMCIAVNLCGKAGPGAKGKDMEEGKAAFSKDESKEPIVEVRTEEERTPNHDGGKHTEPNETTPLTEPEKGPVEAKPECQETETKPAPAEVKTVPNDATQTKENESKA
T1 sequence (P32004 20-1257): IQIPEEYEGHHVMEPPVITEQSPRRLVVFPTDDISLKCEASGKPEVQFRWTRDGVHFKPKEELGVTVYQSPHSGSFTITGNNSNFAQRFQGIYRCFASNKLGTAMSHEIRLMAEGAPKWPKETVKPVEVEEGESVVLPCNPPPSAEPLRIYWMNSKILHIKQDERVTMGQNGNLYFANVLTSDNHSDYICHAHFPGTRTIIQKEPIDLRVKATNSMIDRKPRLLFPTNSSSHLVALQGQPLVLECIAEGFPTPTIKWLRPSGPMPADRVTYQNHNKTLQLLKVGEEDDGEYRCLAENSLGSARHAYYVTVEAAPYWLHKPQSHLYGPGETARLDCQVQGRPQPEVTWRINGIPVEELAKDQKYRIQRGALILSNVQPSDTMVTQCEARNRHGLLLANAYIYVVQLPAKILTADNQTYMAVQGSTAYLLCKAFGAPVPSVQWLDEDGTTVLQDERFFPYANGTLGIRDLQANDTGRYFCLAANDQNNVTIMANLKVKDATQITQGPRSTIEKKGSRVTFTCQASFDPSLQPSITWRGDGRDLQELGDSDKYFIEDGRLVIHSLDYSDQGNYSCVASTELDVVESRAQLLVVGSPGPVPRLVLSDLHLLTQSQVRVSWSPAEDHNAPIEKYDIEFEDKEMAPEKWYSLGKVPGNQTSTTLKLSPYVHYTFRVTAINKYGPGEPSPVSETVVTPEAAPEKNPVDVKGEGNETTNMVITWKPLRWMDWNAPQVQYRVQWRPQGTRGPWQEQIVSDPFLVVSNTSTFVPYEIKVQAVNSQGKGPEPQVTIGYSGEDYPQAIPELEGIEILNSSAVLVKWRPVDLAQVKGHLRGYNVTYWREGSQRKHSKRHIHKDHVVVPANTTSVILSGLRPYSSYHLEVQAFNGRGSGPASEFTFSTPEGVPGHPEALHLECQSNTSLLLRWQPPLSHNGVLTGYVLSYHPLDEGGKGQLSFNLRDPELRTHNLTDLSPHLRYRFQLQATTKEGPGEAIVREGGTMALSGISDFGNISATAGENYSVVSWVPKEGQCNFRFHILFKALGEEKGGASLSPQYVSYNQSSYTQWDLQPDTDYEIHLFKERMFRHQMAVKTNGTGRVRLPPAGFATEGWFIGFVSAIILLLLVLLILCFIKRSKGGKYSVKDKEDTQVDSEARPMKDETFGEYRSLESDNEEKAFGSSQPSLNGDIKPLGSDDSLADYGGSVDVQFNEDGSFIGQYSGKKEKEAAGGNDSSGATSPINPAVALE

Substance: Ac-CINPIC-NH2 (cysteine pairing not given here)
- Percent Inhibition of Neurite Outgrowth over 3T3 Cells Expressing L1 (L1 [1]): 7.8 ± 3.8%
- Percent Inhibition of Neurite Outgrowth (N-cadherin [2]; [8]): 7.5 ± 3.2%
- Percent Inhibition of Neurite Outgrowth (N-cadherin [2]; [9]): 31.5 ± 7.5%
- Percent Inhibition of Neurite Outgrowth (N-cadherin [2]; [10]): 56.2 ± 6.9%
- Percent Inhibition of Neurite Outgrowth over 3T3 Cells Expressing N-cadherin (N-cadherin [2]; 100 μg/ml, Table IV): 94.5 ± 10.5%
- Percent Inhibition of Neurite Outgrowth (N-cadherin [2]; [11]): 94.5 ± 10.5%
- EC50 (N-cadherin [2]; cyclic peptides, Table III): 38.2 µM
- Percent Inhibition of Neurite Outgrowth over 3T3 Cells Expressing NCAM (NCAM [3]): 13.7 ± 7.1%

Substance: Ac-CINPISC-NH2 (cysteine pairing not given here)
- Percent Inhibition of Neurite Outgrowth (N-cadherin [2]; [9]): 21.8 ± 1.2%
- Percent Inhibition of Neurite Outgrowth (N-cadherin [2]; [10]): 39.5 ± 4.3%
- Percent Inhibition of Neurite Outgrowth (N-cadherin [2]; [11]): 73.4 ± 2.2%
- EC50 (N-cadherin [2]; cyclic peptides, Table III): 38.1 µM

Substance: N-Ac-INPISGQ-NH2 [linear peptide derived from EC1 of human N-cadherin]
- Percent Inhibition of Neurite Outgrowth over 3T3 Cells Expressing L1 (L1 [1]): 0.3 ± 1.8%
- Percent Inhibition of Neurite Outgrowth on 3T3 Cells Expressing N-cadherin (N-cadherin [2]; 3 μg/ml): 19.5 ± 4.3%
- Percent Inhibition of Neurite Outgrowth on 3T3 Cells Expressing N-cadherin (N-cadherin [2]; 10 μg/ml): 47.8 ± 4.1%
- Percent Inhibition of Neurite Outgrowth on 3T3 Cells Expressing N-cadherin (N-cadherin [2]; 33 μg/ml): 73.0 ± 4.6%
- Percent Inhibition of Neurite Outgrowth over 3T3 Cells Expressing NCAM (NCAM [3]): 6.2 ± 3.0%
- Disruption of SKOV3 cell adhesion (morphology) [4]: retract from one another and round-up
- Percent Inhibition of Neurite Outgrowth over 3T3 Cells Expressing FGFR (FGFR): 1.9 ± 5.1%

Substance: H-WLKIDPVNGQI-OH
- Inhibition of neurite outgrowth on 3T3 cells expressing NCAM (NCAM [5]): Only neurite outgrowth on 3T3 cells expressing N-cadherin was inhibited
- Binding to N-cadherin-Fc chimera coated flow cell (N-cadherin-Fc chimera): association of the peptide to the flow cell coated with the N-cadherin Fc chimera
- Inhibition of neurite outgrowth on 3T3 cells expressing L1 (L1 [6]): Only neurite outgrowth on 3T3 cells expressing N-cadherin was inhibited
- Inhibition of neurite outgrowth on 3T3 cells expressing N-cadherin (N-cadherin [7]; 250 μg/ml, FIG. 6): inhibited
- Inhibition of the N-cadherin neurite outgrowth response (N-cadherin [7]; 125 and 250 μg/ml, FIG. 5): fully inhibited

Substance: N-Ac-CIDPVNC-NH2 (also: cyclic, type of ring not given here) [cyclic peptide comprising IDPVN, from EC4 of human N-cadherin]
- Percent Inhibition of Neurite Outgrowth (N-cadherin [2]; [12]): 15.4 ± 8.9%

Substance: N-Ac-INAISGQ-NH2 [control peptide with change in a specific amino acid]
- Percent Inhibition of Neurite Outgrowth on 3T3 Cells Expressing N-cadherin (N-cadherin [2]; 33 μg/ml): 12.3 ± 6.2%

Substance: N-Ac-CINPC-NH2
- Percent Inhibition of Neurite Outgrowth (N-cadherin [2]; [8]): 17.4 ± 5.7%
- Percent Inhibition of Neurite Outgrowth (N-cadherin [2]; [9]): 51.9 ± 2.5%
- Percent Inhibition of Neurite Outgrowth (N-cadherin [2]; [10]): 71.0 ± 6.5%
- Percent Inhibition of Neurite Outgrowth (N-cadherin [2]; [11]): 98.1 ± 8.2%
- EC50 (N-cadherin [2]; cyclic peptides, Table III): 14.3 µM

Substance: N-Ac-IDPVNGQ-NH2 [peptide derived from EC4 of human N-cadherin]
- Percent Inhibition of Neurite Outgrowth (N-cadherin [2]; [12]): 0.6 ± 10.0%
